From patent US20150310826A1, “DISPLAY DEVICE AND PHOTOTHERAPY METHOD USING THE SAME” (Samsung Display Co., Ltd., priority 2014, published 2015)
One block for each molecule: values may come before it.

Tests used:
[1] = system: B16F10 melanocyte; experiment: Suppression of generation of melanin to the B16F10 melanocyte; type: cell-based, mouse; conditions: 72 hours; red light 20 μW/cm^2; absorbance at 405 nm
Description: The B16F10 melanocyte is a cell strain derived from a mouse, and is a cell secreting a black pigment that is called melanin. The B16F10 melanocyte used in the present Experimental Example was distributed from ATCC (American Type Culture Collection™), and used.
The B16F10 melanocyte was divided in the 2×10^6 concentration for each well on the 6-well plate, attached, and cultivated by irradiating red light in the culture medium of Experimental Example 1 for 72 hours. After cultivation for 72 hours, the cells were separated by trypsin-EDTA (ethylenediaminetetraacetic acid), the number of cells was measured, and centrifugation was performed to collect the cells. Quantification of melanin in the cell was performed by modifying the Lotan's method. […] Melanin extracted by adding 1N NaOH (10% dimethyl sulfoxide (DMSO)) to the filtrate of the cell obtained by centrifugation was dissolved, absorbance of melanin was measured by the microplate reader at 405 nm, and melanin was quantified to measure the melanin generation hindrance ratio (%) of the sample. […]
The melanin generation hindrance ratio (%) of the B16F10 melanocyte was calculated by the following Equation 4, and the result is described in the following Table 4. […]

[2] = system: proinflammatory cytokine (1L-1α); experiment: Suppression of proinflammatory cytokine expression by irradiation of ultraviolet rays (ELISA); type: cell-based, human; conditions: after 10 mJ/cm^2 ultraviolet ray B; red light for 72 hours at 5 or 47.5 μW/cm^2
Description: 5×10^4 keratinocytes separated from the human epidermal tissue were put at a time on the 24-well test plate, and attached for 24 hours. Each well was washed by the PBS once, and 500 μl of the PBS was put on each well. After 10 mJ/cm^2 of ultraviolet rays were irradiated on the keratinocytes by using the ultraviolet ray B lamp, the PBS was taken out, and 350 μl of the cell cultivation medium (DMEM to which the […] was not added) was added. In addition, red light was irradiated in the culture medium of Experimental Example 1 for 72 hours to perform cultivation. 150 μl of cultivation supernatant was sampled to quantify proinflammatory cytokine (1L-1α) and thus judge the expression suppression effect of proinflammatory cytokine. The amount of proinflammatory cytokine was quantified by using the enzyme-linked immunosorbent assay, and ketoprofen known as the proinflammatory cytokine suppression material was used as the positive control group. The expression suppression ratio (%) of proinflammatory cytokine was calculated by the following Equation 7, and the result is described in the following Table 6.
Expression suppression ratio of […]

[3] = system: procollagen type IC-peptide (PICP); experiment: Improvement of synthesis of collagen (PICP) in fibroblast; type: cell-based, human; conditions: red light 47.5 μW/cm^2 for 24 hours or 72 hours; TGF-β 10 ng/ml
Description: The fibroblast that was the human normal […] cell was inoculated on the 48-well microplate so that the number of cells was 1×10^6 for each well, cultivated in the DMEM medium for 24 hours, and cultivated by irradiating red light in a predetermined quantity for one day and three days in the culture medium of Experimental Example 1. In order to perform the comparative experiment, TGF-β (10 ng/ml) known to have the collagen synthesis improvement effect was used as the positive control group, and cultivation was further performed for 48 hours in the culture medium having no red light irradiation function to use the resulting fibroblast as the control group.
After cultivation, the supernatant liquid of each well was collected to measure the amount of procollagen type IC-peptide (PICP) by using the collagen kit (Takara™, Japan) and thus measure the amount of synthesized collagen. The collagen biosynthesis increase ratio (%) was calculated according to the following Equation 3, and the result is described in the following Table 3.
Collagen biosynthesis increase ratio(%)=(Amount of collagen of the experimental group/[…])×100 (Equation 3)

[4] = system: MMP-2; experiment: Suppression of generation of collagenase MMP-2 in fibroblast; type: cell-based, human; conditions: fibroblast supernatant; three days; red light 47.5 μW/cm^2; TGF-β 10 ng/ml
Description: (§1) The fibroblast (Korean Cell Line Bank, Korean) that was the human normal skin cell was inoculated on the 48-well microplate (Nunc™, Denmark) so that the number of cells was 1×10^6 for each well, cultivated in the DMEM medium (Sigma™, USA) under the condition of 37° C. for 24 hours, and cultivated by irradiating red light for three days in the culture medium of Experimental Example 1. In order to perform the comparative experiment, red light having the similar wavelength was irradiated for three days to perform cultivation, and TGF-β (10 ng/ml) known to have the effect of suppressing generation of collagenase MMP-1,2 was used as the positive control group. Cultivation was further performed for 48 hours in the culture medium having no light irradiation function to use the resulting fibroblast as the control group.
(§2) After cultivation, the supernatant liquid of each well was collected to measure the amount (ng/ml) of newly synthesized MMP-1,2 by using the MMP-1,2 analysis kit (Amersham™, USA), the MMP generation suppression ratio (%) was calculated according to the following Equation 2, and the result is described in the following Table 2.
(§3) MMP generation rate(%)=(Amount of MMP of the experimental group/Amount of MMP of the control group)×100 (Equation 2)

[5] = system: MMP-1; experiment: Suppression of generation of collagenase MMP-1 in fibroblast; type: cell-based, human; conditions: fibroblast supernatant; three days; red light 47.5 μW/cm^2; TGF-β 10 ng/ml
Description: as §1, §2, §3

[6] = system: HaCaT keratinocyte; experiment: Cell regeneration, MTT assay on HaCaT keratinocyte; type: cell-based; conditions: three days cultivation, red light 47.5 μW/cm^2, TGF-β 10 ng/ml
Description: On the 24-well plate, the HaCaT keratinocyte (German Cancer Research Institute, Germany) was inoculated into the DMEM (Dulbecco™ Modified Eagle′ Medium) to which the 10% FBS (fetal bovine serum) was added in the density of 2×10^5 cells/well, and cultivated for one day in the humidified culture medium of 37° C. and 5% CO2. After exchanging with the serum-free DMEM, red light was irradiated for three days in the culture medium in which the aforementioned display device was installed to perform cultivation. In order to perform the comparative experiment, red light having the similar wavelength was irradiated for three days to perform cultivation, and TGF-β (transforming growth factor beta) (10 ng/ml), which is the material known to have a cell regeneration effect, was used as the positive control group. Further, cultivation was performed for three days in the culture medium having no light irradiation function to use the resulting keratinocyte as the control group. The degrees of generation of the cell were compared and evaluated by using the MTT (Microculture Tetrazolium) assay method, and the experimental result is described in the following Table 1.
In general, regeneration of the skin cell is measured by the activation rate of the cell, and the activation rate of the cell is proportional to the absorbance (at 570 nm) in Table 1. […]

Molecule: Oc1ccc(O)cc1 [Comparative Example 10, hydroquinone]
Melanin generation hindrance ratio (%) [1]: 73.1%

Molecule: CC(C(=O)O)c1cccc(C(=O)c2ccccc2)c1 (stereo not shown) [compound 12, ketoprofen]
Expression suppression ratio of proinflammatory cytokine (%) [2]: 41.1%

Molecule: OC[C@H]1O[C@@H](Oc2ccc(O)cc2)[C@H](O)[C@@H](O)[C@@H]1O [Comparative Example 11, arbutin]
Melanin generation hindrance ratio (%) [1]: 52.3%

MMP-2 generation suppression ratio (%) [4]: 76.2% | MMP-1 generation suppression ratio (%) [5]: 75.1%
Molecule: TGF-β (transforming growth factor beta) [compound 3]
Collagen biosynthesis increase ratio (%) [3]: 24.7% | Absorbance (at 570 nm) [6]: 1.423
